In brackets after ≈: the same amount, converted by molar mass.
Legend:
Assay type in all cases: functional
[1] = Antioxidant activity assessed as Fe2+ chelating activity after 10 min by spectrophotometry
[2] = Antioxidant activity assessed as DPPH scavenging activity after 2 hr by spectrophotometry
[3] = Antioxidant activity in phosphate buffer at pH 6.6 assessed as reducing power measuring conversion of potassium ferricyanide to ferrous form after 10 min by spectrophotometry

Row | EC50 [1] | IC50 [2] | EC50 [3] | SMILES
1 | 1.6 µg/mL (≈ 5.49 µM) | 27.08 µg/mL (≈ 93 µM) | 126.35 µg/mL (≈ 434 µM) | COC(=O)C1=C(C)NC(=O)NC1c1cccc([N+](=O)[O-])c1 (stereo not drawn)
2 | 0.9 µg/mL (≈ 3.08 µM) | 5.02 µg/mL (≈ 17.2 µM) | 57.14 µg/mL (≈ 195 µM) | COC(=O)C1=C(C)NC(=O)NC1c1ccc(O)c(OC)c1 (stereo not drawn)
3 | 1.16 µg/mL (≈ 3.8 µM) | 27.73 µg/mL (≈ 90.8 µM) | 339.06 µg/mL (≈ 1110 µM) | CCOC(=O)C1=C(C)NC(=O)NC1c1cccc([N+](=O)[O-])c1 (stereo not drawn)
4 | 1.71 µg/mL (≈ 5.87 µM) | 27.78 µg/mL (≈ 95.4 µM) | 170.02 µg/mL (≈ 584 µM) | COC(=O)C1=C(C)NC(=O)NC1c1ccc([N+](=O)[O-])cc1 (stereo not drawn)
5 | 1.04 µg/mL (≈ 4 µM) | 25.04 µg/mL (≈ 96.2 µM) | 158.9 µg/mL (≈ 610 µM) | CCOC(=O)C1=C(C)NC(=O)NC1c1ccccc1 (stereo not drawn)
6 | 0.88 µg/mL (≈ 2.87 µM) | 3.65 µg/mL (≈ 11.9 µM) | 49.38 µg/mL (≈ 161 µM) | CCOC(=O)C1=C(C)NC(=O)NC1c1ccc(O)c(OC)c1 (stereo not drawn)
7 |  | 2.12 µg/mL (≈ 7.3 µM) | 10 µg/mL (≈ 34.5 µM) | Oc1cc(O)c2c(c1)OC(c1ccc(O)c(O)c1)C(O)C2 (stereo not drawn) [CATECHIN]
8 | 0.89 µg/mL (≈ 3.22 µM) | 2.71 µg/mL (≈ 9.81 µM) | 61.4 µg/mL (≈ 222 µM) | CCOC(=O)C1=C(C)NC(=O)NC1c1ccc(O)cc1 (stereo not drawn)
9 | 1.86 µg/mL (≈ 6.09 µM) | 33.29 µg/mL (≈ 109 µM) | 238.09 µg/mL (≈ 780 µM) | CCOC(=O)C1=C(C)NC(=O)NC1c1ccc([N+](=O)[O-])cc1 (stereo not drawn)
10 | 1.92 µg/mL (≈ 6.95 µM) | 31.69 µg/mL (≈ 115 µM) | 206 µg/mL (≈ 746 µM) | COC(=O)C1=C(C)NC(=O)NC1c1ccc(OC)cc1 (stereo not drawn)
11 | 2.23 µg/mL (≈ 9.06 µM) | 28.43 µg/mL (≈ 115 µM) | 97.56 µg/mL (≈ 396 µM) | COC(=O)C1=C(C)NC(=O)NC1c1ccccc1 (stereo not drawn)
12 |  | 2.18 µg/mL (≈ 9.89 µM) | 20 µg/mL (≈ 90.8 µM) | Cc1cc(C(C)(C)C)c(O)c(C(C)(C)C)c1 [BUTYLATED HYDROXYTOLUENE]
13 | 0.79 µg/mL (≈ 3.01 µM) | 3.14 µg/mL (≈ 12 µM) | 67 µg/mL (≈ 255 µM) | COC(=O)C1=C(C)NC(=O)NC1c1ccc(O)cc1 (stereo not drawn)
14 | 1.55 µg/mL (≈ 5.34 µM) | 48.45 µg/mL (≈ 167 µM) | 171.12 µg/mL (≈ 589 µM) | CCOC(=O)C1=C(C)NC(=O)NC1c1ccc(OC)cc1 (stereo not drawn)

Row | SMILES | EC50 [1] | IC50 [2] | EC50 [3]
15 | O=C(O)CC(O)(CC(=O)O)C(=O)O [CITRIC ACID] | 0.074 µg/mL (≈ 0.385 µM) |  | 
16 | O=C(O)c1cc(O)c(O)c(O)c1 [GALLIC ACID] |  | 2.06 µg/mL (≈ 12.1 µM) | 5.25 µg/mL (≈ 30.9 µM)

From ChEMBL document CHEMBL3045002, “3,4-Dihydropyrimidin-2(1H)-one derivatives: Organocatalysed microwave assisted synthesis and evaluation of their antioxidant activity” (Med Chem Res, 2012)
